Reference: patent US10654814B2, “Bicyclic hydroxamic acids useful as inhibitors of mammalian histone deacetylase activity” (KANCERA AB, priority 2015, dated 2020)
Read-outs that look alike come from different tables or passages of the source. Each block holds one compound with its values, some of them ahead of it.

Tests used:
[1] = system: multiple myeloma cell line OPM-2; experiment: Annexin V apoptosis assay (flow cytometry), OPM-2; type: cell-based; conditions: 72 hours, relative to 0.2% DMSO
From the text: (§1) Method for Measurement of Apoptosis
(§2) The Annexin A5 (or Annexin V) affinity assay provides a method to quantify the number of cells undergoing apoptosis. The assay uses the protein annexin A5 conjugated to fluorescein (FITC Annexin V) and the fluorescent dye propidium iodide (PI) to label early apoptotic (annexin V positive, PI negative) and necrotic/dead cells (annexin V positive, PI positive) quantified by flow cytometry. The annexin A5 protein binds to membrane surfaces containing negatively charged phoshpolipids (phosphatidylserine) which are exposed by apoptotic and dead cells, but not by normal cells. PI binds to nucleic acids in cells which have completely lost the integrity of their plasma membrane, i.e. necrotic cells.
(§3) Standard Annexin V assay protocol was followed (see e.g. http://www.biolegend.com/pop_pdf.php?id=5161 and application references therein). 10,000 cells of each cell line were cultured in 400 μl of medium in 48 well plates. Compounds from 10 mM DMSO stock solutions were added to cells (DMSO content was 0.2%) and incubated for 48 or 72 hours followed by addition of FITC-Annexin V (BioLegend) and PI staining solution (BD Biosciences). The cells were analyzed by flow cytometry, at least 4,000 single cells were analyzed. Compounds were tested either individually at four different concentrations (1, 2.5, 5 and 10 μM) or in combination with 1 μM dexamethasone.
(§4) Annexin V assay results for one compound of the invention (Example 1) with and without 1 μM dexamethasone for the multiple myeloma cell lines OPM-2 and U266 are given in Table 6. In Table 6, the % apoptosis values with compound(s) present are relative to the absence of compounds (only 0.2% DMSO present).

[2] = system: multiple myeloma cell line U266; experiment: Annexin V apoptosis assay (flow cytometry), U266; type: cell-based; conditions: 72 hours, relative to 0.2% DMSO
From the text: as §1, §2, §3, §4

[3] = system: AMO-1 (plasmacytoma) cells; experiment: CellTiter-Blue cell viability assay, AMO-1; type: cell-based; conditions: Homo sapiens, AMO1; 72 hours of treatment
Method: (§5) Method for Measurement of Cell Viability
(§6) The CellTiter-Blue® Cell Viability Assay (Promega) provides a homogeneous, fluorometric method for estimating the number of viable cells present in multi-well plates. The assay uses the indicator dye resazurin to measure the metabolic capacity of cells. Viable cells retain the ability to reduce resazurin into resorufin, which is highly fluorescent.
(§7) Stock solutions (10 mM in DMSO) of compounds were serially diluted 1:2 in 11 concentrations. 50 nL/well (10 mM compound stock in DMSO) was acoustically dispensed in 384-well assay plates with an acoustic dispenser (EDC Biosystems ATS-100AV). Final starting concentration in the assay was 20 μM (0.2% DMSO) for test compounds. The following cell-lines (and origin) have been primarily used: PaCa2 (pancreatic), U266 (multiple myeloma), AMO-1 (plasmacytoma), and MDA-MB-231 (breast adenocarcinoma). PBMCs (peripheral blood mononuclear cells) from healthy donors were used as control cells. Cells were seeded in assay plates (384-well black/clear, Greiner #781091) pre-dispensed with compounds, 25 μL/well, and cultured for 72 hours. After 72 hours, Celltiter Blue reagent (Promega # G8081) was diluted 1:10 with PBS and then added to wells (5 μL/well). The plates were incubated for 2 hours following addition of reagent. The plates were read in an EnVision fluorescence reader (PerkinElmer) with Ex544 nm/Em590 nm. Results were calculated as % cell viability compared to background (cells treated with 0.2% DMSO).

[4] = target: HDAC2 (Homo sapiens (Human), UniProt Q92769); experiment: HDAC2 in vitro enzymatic assay (fluorescence); type: biochemical; conditions: Table 4 selectivity profiling
Method: (§8) Biological Tests Method for Measurement of Enzymatic Activity of HDACs Materials & Methods
(§9) All Examples were tested in HDAC1,2,3,6 and 8 in vitro enzymatic assays. The assay principle is well known (Hauser et al. 2009, Bradner et al. 2010) and all necessary reagents like enzymes, substrates, developer and reference compounds are commercially available (see e.g. BPS Biosciences http://www.bpsbioscience.com/). Stock solutions (10 mM in DMSO) of compounds were serially diluted 1:3 in 11 concentrations with a top concentration of 200 μM for HDAC1,2,3 and 2 μM for HDAC6 and HDAC8. The enzymatic reactions were conducted in a mixture containing assay buffer, bovine serum albumin, HDAC substrate, and a test compound. After enzymatic reaction, developer was added and after an additional incubation time, fluorescence intensity was measured at an excitation wavelength of 360 nm and an emission wavelength of 460 nm. All experiments were performed in duplicate.

[5] = system: U266 (multiple myeloma) cells; experiment: CellTiter-Blue cell viability assay, U266; type: cell-based; conditions: Homo sapiens, U-266; 72 hours of treatment
Method: as §5, §6, §7

[6] = target: HDAC1 (Homo sapiens (Human), UniProt Q13547); experiment: HDAC1 in vitro enzymatic assay (fluorescence); type: biochemical; conditions: Table 4 selectivity profiling
Method: as §8, §9

[7] = system: PaCa2 (pancreatic) cells; experiment: CellTiter-Blue cell viability assay, PaCa2; type: cell-based; conditions: PaCa-2; 72 hours of treatment
Method: as §5, §6, §7

[8] = system: MDA-MB-231 (breast adenocarcinoma) cells; experiment: CellTiter-Blue cell viability assay, MDA-MB-231; type: cell-based; conditions: Homo sapiens, 72 hours of treatment
Method: as §5, §6, §7

[9] = target: HDAC3 (Homo sapiens (Human), UniProt O15379); experiment: HDAC3 in vitro enzymatic assay (fluorescence); type: biochemical; conditions: Table 4 selectivity profiling
Method: as §8, §9

[10] = target: HDAC6 (Homo sapiens (Human), UniProt Q9UBN7); experiment: HDAC6 in vitro enzymatic assay (fluorescence); type: biochemical
How it was run: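 Fluorogenic HDAC substrate reactions contained assay buffer, BSA and compound, followed by developer. Fluorescence was read at ex 360/em 460 nm. Compounds were tested as 11-point 1:3 dilutions from a top of 200 μM for HDAC1, 2 and 3, and from 2 μM for HDAC6, in duplicate.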

[11] = target: HDAC8 (Homo sapiens (Human), UniProt Q9BY41); experiment: HDAC8 in vitro enzymatic assay (fluorescence); type: biochemical; conditions: Table 4 selectivity profiling
Method: as §8, §9

[12] = system: PBMCs (peripheral blood mononuclear cells) from healthy donors; experiment: CellTiter-Blue cell viability assay, healthy PBMC; type: cell-based; conditions: 72 hours of treatment
Method: as §5, §6, §7

Sequence of HDAC6 (Q9UBN7 whole entry): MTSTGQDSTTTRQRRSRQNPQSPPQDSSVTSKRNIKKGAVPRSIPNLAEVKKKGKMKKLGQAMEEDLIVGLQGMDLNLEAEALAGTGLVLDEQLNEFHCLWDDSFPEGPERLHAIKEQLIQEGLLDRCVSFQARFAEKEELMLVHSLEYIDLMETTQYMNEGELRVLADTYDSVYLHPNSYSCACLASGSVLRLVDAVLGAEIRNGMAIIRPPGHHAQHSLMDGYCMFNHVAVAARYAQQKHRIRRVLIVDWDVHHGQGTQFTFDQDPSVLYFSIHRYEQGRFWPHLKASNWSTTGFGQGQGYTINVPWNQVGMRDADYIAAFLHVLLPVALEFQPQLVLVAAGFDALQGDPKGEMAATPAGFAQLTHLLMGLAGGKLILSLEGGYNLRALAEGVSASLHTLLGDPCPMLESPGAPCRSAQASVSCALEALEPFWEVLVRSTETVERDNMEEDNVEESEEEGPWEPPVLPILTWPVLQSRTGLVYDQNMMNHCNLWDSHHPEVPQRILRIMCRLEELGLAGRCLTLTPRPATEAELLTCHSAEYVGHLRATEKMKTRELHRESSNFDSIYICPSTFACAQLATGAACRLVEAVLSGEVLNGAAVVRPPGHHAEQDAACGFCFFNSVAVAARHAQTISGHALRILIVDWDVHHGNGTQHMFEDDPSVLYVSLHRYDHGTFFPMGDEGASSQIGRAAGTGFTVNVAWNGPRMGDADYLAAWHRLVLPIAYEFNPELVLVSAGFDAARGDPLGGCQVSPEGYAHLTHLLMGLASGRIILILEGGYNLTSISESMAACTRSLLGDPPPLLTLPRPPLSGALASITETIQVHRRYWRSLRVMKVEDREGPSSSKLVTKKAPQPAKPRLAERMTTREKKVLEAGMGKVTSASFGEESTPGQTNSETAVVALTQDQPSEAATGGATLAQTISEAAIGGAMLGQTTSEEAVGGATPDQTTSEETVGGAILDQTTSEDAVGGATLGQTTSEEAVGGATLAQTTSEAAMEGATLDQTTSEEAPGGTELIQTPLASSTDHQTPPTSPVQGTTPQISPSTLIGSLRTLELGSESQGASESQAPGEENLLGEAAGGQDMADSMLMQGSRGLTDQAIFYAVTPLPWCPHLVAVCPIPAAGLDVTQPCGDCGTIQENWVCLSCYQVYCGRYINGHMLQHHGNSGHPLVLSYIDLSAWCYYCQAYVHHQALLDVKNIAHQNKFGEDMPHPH
Sequence of HDAC8 (Q9BY41 whole entry): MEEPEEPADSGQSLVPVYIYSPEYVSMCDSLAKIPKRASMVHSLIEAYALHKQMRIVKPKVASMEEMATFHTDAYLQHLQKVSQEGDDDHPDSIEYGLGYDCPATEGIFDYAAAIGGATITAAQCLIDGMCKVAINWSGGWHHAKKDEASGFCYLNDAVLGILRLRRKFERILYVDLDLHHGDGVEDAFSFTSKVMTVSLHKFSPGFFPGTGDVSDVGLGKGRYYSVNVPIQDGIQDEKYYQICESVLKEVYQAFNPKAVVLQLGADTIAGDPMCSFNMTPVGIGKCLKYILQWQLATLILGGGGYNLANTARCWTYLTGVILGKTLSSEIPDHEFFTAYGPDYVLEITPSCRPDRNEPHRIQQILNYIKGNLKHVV
Sequence of HDAC3 (O15379 whole entry): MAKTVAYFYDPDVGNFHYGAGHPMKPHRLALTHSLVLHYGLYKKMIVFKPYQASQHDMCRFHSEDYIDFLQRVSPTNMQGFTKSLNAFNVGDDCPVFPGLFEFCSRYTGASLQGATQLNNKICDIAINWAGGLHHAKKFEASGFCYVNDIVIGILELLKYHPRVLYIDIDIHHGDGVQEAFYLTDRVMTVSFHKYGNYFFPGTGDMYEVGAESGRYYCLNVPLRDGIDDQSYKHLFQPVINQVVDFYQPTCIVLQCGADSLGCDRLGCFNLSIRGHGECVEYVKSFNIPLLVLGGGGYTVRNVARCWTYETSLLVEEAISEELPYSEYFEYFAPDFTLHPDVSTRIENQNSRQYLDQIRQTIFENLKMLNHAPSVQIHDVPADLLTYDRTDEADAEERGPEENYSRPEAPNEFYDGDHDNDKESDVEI
Sequence of HDAC3 (Q9Y618 395-489 partner): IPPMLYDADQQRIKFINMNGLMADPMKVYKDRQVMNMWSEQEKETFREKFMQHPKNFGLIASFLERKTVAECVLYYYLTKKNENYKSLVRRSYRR
Sequence of HDAC2 (Q92769 whole entry): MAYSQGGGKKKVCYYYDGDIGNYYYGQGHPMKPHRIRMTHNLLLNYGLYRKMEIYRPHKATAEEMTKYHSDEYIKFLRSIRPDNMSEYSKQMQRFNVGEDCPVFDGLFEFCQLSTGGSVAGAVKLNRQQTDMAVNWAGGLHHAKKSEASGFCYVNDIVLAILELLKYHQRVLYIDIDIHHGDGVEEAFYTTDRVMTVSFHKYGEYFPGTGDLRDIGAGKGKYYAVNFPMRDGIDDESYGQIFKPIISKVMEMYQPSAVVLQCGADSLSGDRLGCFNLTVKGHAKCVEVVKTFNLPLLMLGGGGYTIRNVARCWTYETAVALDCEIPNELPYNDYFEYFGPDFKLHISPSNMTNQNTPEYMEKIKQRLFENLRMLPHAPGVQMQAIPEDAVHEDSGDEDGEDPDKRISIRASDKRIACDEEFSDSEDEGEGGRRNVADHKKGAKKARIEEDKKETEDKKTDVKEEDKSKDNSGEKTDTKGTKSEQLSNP
Sequence of HDAC1 (Q13547 whole entry): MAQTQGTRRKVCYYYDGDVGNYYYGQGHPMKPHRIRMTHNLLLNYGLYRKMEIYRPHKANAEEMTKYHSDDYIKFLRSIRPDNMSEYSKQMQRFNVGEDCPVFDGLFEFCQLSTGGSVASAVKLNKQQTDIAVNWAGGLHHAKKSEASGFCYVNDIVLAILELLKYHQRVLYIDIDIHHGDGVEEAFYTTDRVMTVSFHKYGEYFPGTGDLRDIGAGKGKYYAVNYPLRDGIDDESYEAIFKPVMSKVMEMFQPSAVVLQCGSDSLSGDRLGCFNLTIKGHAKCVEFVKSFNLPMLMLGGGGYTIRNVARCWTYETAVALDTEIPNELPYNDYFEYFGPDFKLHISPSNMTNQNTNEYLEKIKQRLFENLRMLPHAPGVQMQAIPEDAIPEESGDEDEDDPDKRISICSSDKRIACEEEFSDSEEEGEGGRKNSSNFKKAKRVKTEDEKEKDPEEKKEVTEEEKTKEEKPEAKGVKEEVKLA

SMILES: C[C@@H]1C[C@H]2[C@@H]3CCC4=CC(=O)C=C[C@]4(C)[C@@]3(F)[C@@H](O)C[C@]2(C)[C@@]1(O)C(=O)CO [DEX, dexamethasone, reference compound]
% apoptosis OPM-2 ([1]; 1 μM DEX alone): 35%
% apoptosis U266 ([2]; 1 μM DEX alone): 42%

IC50 [3]: 0.39 µM
IC50 [4]: 13000 nM
IC50 [5]: 0.62 µM
IC50 [6]: 4000 nM
IC50 [8]: 0.65 µM
IC50 [9]: 1700 nM
IC50 ([10]; Table 3, read-out: IC50 (nM) for inhibition of HDAC6): 26 nM
IC50 ([10]; Table 4 selectivity profiling, read-out: IC50 (nM) HDAC6): 26 nM
IC50 [11]: 1200 nM
SMILES: CC(C)c1ccc(-c2nc3cc(C(=O)NO)ccc3o2)cc1 [Example 1, N-Hydroxy-2-[4-(1-methylethyl)phenyl]-1,3-benzoxazole-5-carboxamide]
IC50 [7]: 0.98 µM
% apoptosis OPM-2 ([1]; 1 μM Ex. 1 alone): 3%
% apoptosis OPM-2 ([1]; 2.5 μM Ex. 1 alone): 37%
% apoptosis OPM-2 ([1]; 5 μM Ex. 1 alone): 38%
% apoptosis OPM-2 ([1]; 10 μM Ex. 1 alone): 59%
% apoptosis U266 ([2]; 1 μM Ex. 1 alone): 30%
% apoptosis U266 ([2]; 2.5 μM Ex. 1 alone): 59%
% apoptosis U266 ([2]; 5 μM Ex. 1 alone): 43%
% apoptosis U266 ([2]; 10 μM Ex. 1 alone): 88%
IC50 [12]: > 20 µM
